Data taken from US20180244611A1, “Modulators of the Cystic Fibrosis Transmembrane Conductance Regulator Protein and Methods of Use” (AbbVie S.à.r.l., priority 2017, published 2018).
pEC50: −log10 of the molar value.

Columns and labels:
F508delCFTR [1] = biological target: T1, F508delCFTR (Homo sapiens, UniProt P13569, DEL508-508); test: Cell Surface Expression-Horse Radish Peroxidase (CSE-HRP) assay, test compound without co-corrector; type: cell-based; conditions: for Emax: maximum at any tested concentration, normalized to positive control, without co-corrector; for pEC50: test compound without co-corrector;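 on Emax: percent of on-plate 2 µM positive control corrector response over DMSO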
T1 construct: expressed in transfected cells; host or cells: CFBE41o- human lung-derived epithelial cells (CFBE41o-F508delCFTR-HRP), doxycycline-inducible
T1 sequence (P13569 with tags, fused parts or gaps DEL508-508): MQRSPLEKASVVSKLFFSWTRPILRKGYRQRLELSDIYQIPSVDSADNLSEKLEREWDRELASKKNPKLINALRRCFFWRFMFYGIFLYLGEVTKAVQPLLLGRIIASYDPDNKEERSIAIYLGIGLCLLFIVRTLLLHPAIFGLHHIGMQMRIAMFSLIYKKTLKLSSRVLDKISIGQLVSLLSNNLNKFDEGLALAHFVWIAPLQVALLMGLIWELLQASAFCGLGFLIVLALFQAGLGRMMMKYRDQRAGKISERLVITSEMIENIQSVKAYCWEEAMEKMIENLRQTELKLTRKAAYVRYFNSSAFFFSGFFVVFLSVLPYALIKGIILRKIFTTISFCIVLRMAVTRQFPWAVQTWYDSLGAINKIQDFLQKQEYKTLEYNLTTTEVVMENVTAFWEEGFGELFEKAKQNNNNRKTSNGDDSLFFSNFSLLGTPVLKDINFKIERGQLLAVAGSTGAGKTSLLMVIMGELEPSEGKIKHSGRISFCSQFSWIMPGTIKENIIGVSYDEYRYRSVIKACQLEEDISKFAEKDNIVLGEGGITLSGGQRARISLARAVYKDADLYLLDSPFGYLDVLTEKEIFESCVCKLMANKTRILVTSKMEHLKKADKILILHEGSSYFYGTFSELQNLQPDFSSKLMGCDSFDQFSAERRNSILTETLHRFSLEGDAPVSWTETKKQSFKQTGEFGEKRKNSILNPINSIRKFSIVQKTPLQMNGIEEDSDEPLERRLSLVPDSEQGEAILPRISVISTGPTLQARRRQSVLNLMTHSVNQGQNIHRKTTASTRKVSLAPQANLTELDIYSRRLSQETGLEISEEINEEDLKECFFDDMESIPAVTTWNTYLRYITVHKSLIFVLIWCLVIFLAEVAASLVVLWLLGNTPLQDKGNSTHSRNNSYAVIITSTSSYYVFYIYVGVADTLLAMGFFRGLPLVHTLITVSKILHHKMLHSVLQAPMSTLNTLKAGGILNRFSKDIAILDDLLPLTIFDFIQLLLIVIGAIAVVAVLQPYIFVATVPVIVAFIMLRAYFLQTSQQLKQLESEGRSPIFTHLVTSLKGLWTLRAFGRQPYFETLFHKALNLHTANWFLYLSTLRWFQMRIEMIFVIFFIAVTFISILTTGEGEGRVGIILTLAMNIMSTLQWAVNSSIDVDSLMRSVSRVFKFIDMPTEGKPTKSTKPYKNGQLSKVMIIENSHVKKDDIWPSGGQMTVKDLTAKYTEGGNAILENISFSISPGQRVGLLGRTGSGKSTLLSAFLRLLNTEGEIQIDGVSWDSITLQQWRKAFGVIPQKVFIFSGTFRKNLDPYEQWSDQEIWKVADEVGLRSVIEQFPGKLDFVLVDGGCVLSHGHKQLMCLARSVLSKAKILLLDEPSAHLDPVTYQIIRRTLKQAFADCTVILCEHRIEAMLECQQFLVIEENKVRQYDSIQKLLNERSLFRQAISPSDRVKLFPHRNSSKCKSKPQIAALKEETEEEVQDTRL
Procedure, shortened: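 Compound without co-corrector was tested at eight 3-fold concentrations, top 20 μM, for 18-24 h at 33° C on doxycycline-induced (0.5 μg/mL, 72 h) CFBE41o- F508delCFTR-HRP cells. After DPBS washes, luminol luminescence gave % activity relative to on-plate positive control minus DMSO; EC50 came from triplicate-plate sigmoidal fitting.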

F508delCFTR [2] = biological target: T1, F508delCFTR; test: Cell Surface Expression-Horse Radish Peroxidase (CSE-HRP) assay, test compound with co-corrector; type: cell-based; conditions: with 2 μM co-corrector; for Maximum % activity (with co-corrector): maximum at any tested concentration, normalized to positive control;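 on Maximum % activity (with co-corrector): percent of 2 µM positive control corrector over DMSO; co-corrector is that same compound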
Procedure, shortened: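 Surface-expression read-out: luminol luminescence from an HRP tag in the fourth exofacial loop of F508delCFTR, in doxycycline-induced (0.5 μg/mL, 72 h) CFBE41o- cells. Compound plus 2 μM co-corrector added for 18-24 h at 33° C., 8-point 3-fold series up to 20 μM. EC50 from a sigmoidal fit with variable Hill slope, normalised to positive control, triplicate plates.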

| Structure (SMILES) | Emax (F508delCFTR [1]) [%] | pEC50 (F508delCFTR [1]) | Maximum % activity (with co-corrector) (F508delCFTR [2]) | pEC50 (F508delCFTR [2]) |
| --- | --- | --- | --- | --- |
| COc1ccc(-c2ccc(C)nc2)c2c1CCCC2C(=O)NS(=O)(=O)c1cccc2ccccc12 (stereo not drawn) [II-122] | ≥ 150 | 5.00 to 5.52 | +++ (≥350) | > 5.52 |
| CCOc1ccc2c(S(=O)(=O)NC(=O)C3CCc4c(Br)ccc(OC)c43)cccc2n1 (stereo not drawn) [II-123] | ≥ 150 | 5.00 to 5.52 | +++ (≥350) | 5.00 to 5.52 |
| COc1ccc(N2CCCC2)c2c1C(C(=O)NS(=O)(=O)c1cccc3ccccc13)CCC2 (stereo not drawn) [II-124] | ≥ 150 | > 5.52 | +++ (≥350) | > 5.52 |
| CCC1(C(=O)NS(=O)(=O)c2cccc(N3CCCCC3)c2C)CCc2c(Cl)cccc21 (stereo not drawn) [II-125] | 50 to 150 | 5.00 to 5.52 | +++ (≥350) | 5.00 to 5.52 |
| CCC1(C(=O)NS(=O)(=O)c2cccc(N3CC(F)(F)C3)c2C)CCc2c(Cl)cccc21 (stereo not drawn) [II-126] | 50 to 150 | 5.00 to 5.52 | +++ (≥350) | 5.00 to 5.52 |
| CCC1(C(=O)NS(=O)(=O)c2cccc(N3CCC(F)(F)C3)c2C)CCc2c(Cl)cccc21 (stereo not drawn) [II-127] | 50 to 150 | 5.00 to 5.52 | +++ (≥350) | > 5.52 |
| COc1ccc(-c2ccc(C(F)(F)F)nc2)c2c1CCCC2C(=O)NS(=O)(=O)c1cccc2ccccc12 (stereo not drawn) [II-129] | ≥ 150 | > 5.52 | +++ (≥350) | > 5.52 |
| COc1ccc(C2=CCOCC2)c2c1CCCC2C(=O)NS(=O)(=O)c1cccc2ccccc12 (stereo not drawn) [II-130] | ≥ 150 | > 5.52 | +++ (≥350) | > 5.52 |
| COc1ccc(-c2ccc(C3CC3)nc2)c2c1CCCC2C(=O)NS(=O)(=O)c1cccc2ccccc12 (stereo not drawn) [II-131] | ≥ 150 | > 5.52 | +++ (≥350) | > 5.52 |
| COc1ccc(Br)c2c1C(C(=O)NS(=O)(=O)c1cccc3nc(C(C)C)ccc13)CC2 (stereo not drawn) [II-132] | ≥ 150 | > 5.52 | +++ (≥350) | > 5.52 |
| COc1ccc(Br)c2c1C(C(=O)NS(=O)(=O)c1cccc3c(OC)cccc13)CC2 (stereo not drawn) [II-133] | ≥ 150 | 5.00 to 5.52 | +++ (≥350) | 5.00 to 5.52 |
| COC(=O)c1ccc(OC)c2c1CCC2C(=O)NS(=O)(=O)c1cccc2ccccc12 (stereo not drawn) [II-134] | ≥ 150 | 5.00 to 5.52 | +++ (≥350) | > 5.52 |
| COC(=O)c1cccc2c(S(=O)(=O)NC(=O)C3CCc4c(Br)ccc(OC)c43)cccc12 (stereo not drawn) [II-135] | ≥ 150 | 5.00 to 5.52 | +++ (≥350) | 5.00 to 5.52 |
| O=C(NS(=O)(=O)c1cccc2ccccc12)C1CCCc2c(Cl)ccc(OCCN3CCOCC3)c21 (stereo not drawn) [II-136] | ≥ 150 | 5.00 to 5.52 | +++ (≥350) | 5.00 to 5.52 |

Other lines, results leading:

| Emax (F508delCFTR [1]) [%] | pEC50 (F508delCFTR [1]) | Maximum % activity (with co-corrector) (F508delCFTR [2]) | pEC50 (F508delCFTR [2]) | Structure (SMILES) |
| --- | --- | --- | --- | --- |
| < 50 | ≤ 5.00 | + (<150) | ≤ 5.00 | CC1(C(=O)NS(=O)(=O)Cc2ccccc2)CCc2c(Cl)cccc21 (stereo not drawn) [III-3] |
| < 50 | ≤ 5.00 | + (<150) | ≤ 5.00 | Cc1nn(C)c(C)c1S(=O)(=O)NC(=O)C1CCc2c(Cl)cccc21 (stereo not drawn) [III-4] |
| < 50 | ≤ 5.00 | + (<150) | ≤ 5.00 | COCCS(=O)(=O)NC(=O)C1CCc2c(Cl)cccc21 (stereo not drawn) [III-5] |
| < 50 | ≤ 5.00 | + (<150) | ≤ 5.00 | CCCS(=O)(=O)NC(=O)C1CCc2c(Cl)cccc21 (stereo not drawn) [III-6] |
| < 50 | ≤ 5.00 | ++ (≥150 and <350) | 5.00 to 5.52 | COc1cccc2c1CC(C(=O)NS(=O)(=O)c1ccccc1C)CC2 (stereo not drawn) [III-7] |
| < 50 | ≤ 5.00 | + (<150) | ≤ 5.00 | COc1ccc2c(c1)CCC2C(=O)NS(=O)(=O)c1ccccc1C (stereo not drawn) [III-9] |
| < 50 | ≤ 5.00 | + (<150) | ≤ 5.00 | Cc1ccccc1S(=O)(=O)NC(=O)C1CCc2ccccc2C1 (stereo not drawn) [III-10] |
| < 50 | ≤ 5.00 | + (<150) | ≤ 5.00 | COc1cccc2c1CCC2C(=O)NS(=O)(=O)c1c(C)nn(C)c1C (stereo not drawn) [III-11] |
| < 50 | ≤ 5.00 | + (<150) | 5.00 to 5.52 | COc1ccccc1S(=O)(=O)NC(=O)C1CCc2c(OC)cccc21 (stereo not drawn) [III-12] |
| < 50 | ≤ 5.00 | + (<150) | ≤ 5.00 | COc1cccc2c1CCC2C(=O)NS(=O)(=O)c1ccc(C)cn1 (stereo not drawn) [III-13] |
| < 50 | ≤ 5.00 | + (<150) | ≤ 5.00 | COc1cccc2c1CCC2C(=O)NS(=O)(=O)C1CCOCC1 (stereo not drawn) [III-14] |
| < 50 | ≤ 5.00 | + (<150) | ≤ 5.00 | COCCCS(=O)(=O)NC(=O)C1CCc2c(OC)cccc21 (stereo not drawn) [III-15] |
| < 50 | ≤ 5.00 | + (<150) | ≤ 5.00 | COCCS(=O)(=O)NC(=O)C1CCc2c(OC)cccc21 (stereo not drawn) [III-16] |
| < 50 | ≤ 5.00 | + (<150) | ≤ 5.00 | CCCS(=O)(=O)NC(=O)C1CCc2c(OC)cccc21 (stereo not drawn) [III-17] |
| < 50 | ≤ 5.00 | + (<150) | ≤ 5.00 | COc1ccccc1S(=O)(=O)NC(=O)C1CCc2c(Cl)cccc21 (stereo not drawn) [III-18] |
| < 50 | ≤ 5.00 | + (<150) | ≤ 5.00 | Cc1ccc(S(=O)(=O)NC(=O)C2CCc3c(Cl)cccc32)nc1 (stereo not drawn) [III-19] |

| Emax (F508delCFTR [1]) [%] | pEC50 (F508delCFTR [1]) | Maximum % activity (with co-corrector) (F508delCFTR [2]) | pEC50 (F508delCFTR [2]) | Structure (SMILES) |
| --- | --- | --- | --- | --- |
| < 50 | ≤ 5.00 | + (<150) | ≤ 5.00 | COc1cccc2c1CCC2C(=O)NS(=O)(=O)c1ccc(O)cc1 (stereo not drawn) [III-20] |
| < 50 | ≤ 5.00 | + (<150) | ≤ 5.00 | COc1cccc2c1CCC2C(=O)NS(=O)(=O)Cc1ccccc1 (stereo not drawn) [III-21] |
| < 50 | ≤ 5.00 | + (<150) | ≤ 5.00 | COc1cccc2c1CCC2C(=O)NS(=O)(=O)c1ccc2cc(O)ccc2c1 (stereo not drawn) [III-22] |
| < 50 | 5.00 to 5.52 | ++ (≥150 and <350) | 5.00 to 5.52 | COc1cccc2c1CCC2C(=O)NS(=O)(=O)c1ccc(C)cc1 (stereo not drawn) [III-23] |
| < 50 | ≤ 5.00 | + (<150) | ≤ 5.00 | COc1cccc2c1CCC2C(=O)NS(=O)(=O)c1nnc(NC(C)=O)s1 (stereo not drawn) [III-24] |
| < 50 | ≤ 5.00 | + (<150) | 5.00 to 5.52 | COc1cccc2c1CCC2C(=O)NS(=O)(=O)c1cc(C)ccc1C(C)C (stereo not drawn) [III-25] |
| < 50 | ≤ 5.00 | + (<150) | ≤ 5.00 | COc1cccc2c1CCC2C(=O)NS(=O)(=O)c1ccc(S(C)(=O)=O)cc1 (stereo not drawn) [III-26] |
| < 50 | ≤ 5.00 | + (<150) | ≤ 5.00 | COc1cccc2c1CCC2C(=O)NS(=O)(=O)c1cccc([N+](=O)[O-])c1 (stereo not drawn) [III-27] |
| < 50 | ≤ 5.00 | + (<150) | ≤ 5.00 | COc1cccc2c1CCC2C(=O)NS(=O)(=O)c1ccc(Cl)c([N+](=O)[O-])c1 (stereo not drawn) [III-28] |
| < 50 | ≤ 5.00 | + (<150) | ≤ 5.00 | COc1cccc2c1CCC2C(=O)NS(=O)(=O)c1cc([N+](=O)[O-])ccc1C (stereo not drawn) [III-30] |
| < 50 | ≤ 5.00 | + (<150) | ≤ 5.00 | COc1cccc2c1CCC2C(=O)NS(=O)(=O)c1ccc(NC(C)=O)cc1C (stereo not drawn) [III-31] |
| < 50 | ≤ 5.00 | + (<150) | ≤ 5.00 | COc1cccc2c1CCC2C(=O)NS(=O)(=O)c1ccc(Cl)cc1 (stereo not drawn) [III-32] |
| < 50 | ≤ 5.00 | ++ (≥150 and <350) | > 5.52 | COc1cccc2c1CCC2C(=O)NS(=O)(=O)c1ccc(Cl)cc1[N+](=O)[O-] (stereo not drawn) [III-33] |
| < 50 | ≤ 5.00 | + (<150) | ≤ 5.00 | COc1cccc2c1CCC2C(=O)NS(=O)(=O)c1ccc2ccccc2c1 (stereo not drawn) [III-34] |
| < 50 | ≤ 5.00 | ++ (≥150 and <350) | 5.00 to 5.52 | COc1cccc2c1CCC2C(=O)NS(=O)(=O)c1cccc(Cl)c1 (stereo not drawn) [III-35] |
